Columns and labels:
HOP-92 = test: panel of 60 human tumor cell lines, growth inhibition (Non-Small Cell Lung Cancer); details: Homo sapiens; for GI50: HOP-92, HOP-92
HT29 = test: panel of 60 human tumor cell lines, growth inhibition (Colon Cancer); details: for Percent Growth: HT29
HOP-62 = test: panel of 60 human tumor cell lines, growth inhibition (Non-Small Cell Lung Cancer); details: Homo sapiens
PC-3 = test: panel of 60 human tumor cell lines, growth inhibition (Prostate Cancer); details: Homo sapiens
MOLT-4 = test: panel of 60 human tumor cell lines, growth inhibition (Leukemia); details: Homo sapiens
SF-295 = test: panel of 60 human tumor cell lines, growth inhibition (CNS Cancer); details: Homo sapiens
SW-620 = test: panel of 60 human tumor cell lines, growth inhibition (Colon Cancer); details: Homo sapiens; for GI50: SW-620, SW-620
LOX IMVI = test: panel of 60 human tumor cell lines, growth inhibition (Melanoma); details: Homo sapiens
SR = test: panel of 60 human tumor cell lines, growth inhibition (Leukemia); details: Homo sapiens
K-562 = test: as above
COLO 205 = test: panel of 60 human tumor cell lines, growth inhibition (Colon Cancer); details: Homo sapiens
MDA-MB-468 = test: panel of 60 human tumor cell lines, growth inhibition (Breast Cancer); details: Homo sapiens
U251 = test: panel of 60 human tumor cell lines, growth inhibition (CNS Cancer); details: Homo sapiens
SF-539 = test: as above; details: Homo sapiens
NCI-H322M = test: panel of 60 human tumor cell lines, growth inhibition (Non-Small Cell Lung Cancer); details: Homo sapiens
CAKI-1 = test: panel of 60 human tumor cell lines, growth inhibition (Renal Cancer); details: Homo sapiens
OVCAR-3 = test: panel of 60 human tumor cell lines, growth inhibition (Ovarian Cancer)

C=C1C(=O)O[C@H]2[C@H]1CC/C(COC(=O)NCCN1CCOCC1)=C\CC[C@@]1(C)O[C@@H]21 [JVM 57, ((1aR,7aS,10aS,10bS,E)-1a-methyl-8-methylene-9-oxo-1a,2,3,6,7,7a,8,9,10a,10b-decahydrooxireno[2′,3′:9,10]-cyclodeca[1,2-b]furan-5-yl)-methyl(2-morpholinoethyl)carbamate]
GI50 (HOP-92): 2.3 µM
GI50 (HOP-92; 5-dose assay): 2.3 µM
CC50 (HOP-92; HOP-92, read-out: LC50): 33.7 µM
IC (TGI) (HOP-92; HOP-92, read-out: TGI): 8.61 µM
Percent Growth (HT29; Log10 Concentration −4.0): −74%
Percent Growth (HT29; Log10 Concentration −5.0): 43%
Percent Growth (HT29; Log10 Concentration −6.0): 110%
Percent Growth (HT29; Log10 Concentration −7.0): 108%
Percent Growth (HT29; Log10 Concentration −8.0): 102%
GI50 (HT29; Homo sapiens, HT-29): 7.83 µM
CC50 (HT29; Homo sapiens, HT-29, read-out: LC50): 62.7 µM
IC (TGI) (HT29; Homo sapiens, HT-29, read-out: TGI): 23.3 µM
GI50 (HOP-62; HOP-62): 27.4 µM
CC50 (HOP-62; HOP-62, read-out: LC50): > 100 µM
IC (TGI) (HOP-62; HOP-62, read-out: TGI): 53 µM
GI50 (PC-3; PC-3): 16.6 µM
CC50 (PC-3; PC-3, read-out: LC50): 85.8 µM
IC (TGI) (PC-3; PC-3, read-out: TGI): 37.8 µM
GI50 (MOLT-4; MOLT-4): 5 µM
CC50 (MOLT-4; MOLT-4, read-out: LC50): > 100 µM
IC (TGI) (MOLT-4; MOLT-4, read-out: TGI): 22.9 µM
GI50 (SF-295; SF-295): > 100 µM
CC50 (SF-295; SF-295, read-out: LC50): > 100 µM
IC (TGI) (SF-295; SF-295, read-out: TGI): > 100 µM
GI50 (SW-620): 3.48 µM
GI50 (SW-620; 5-dose assay): 3.48 µM
CC50 (SW-620; SW-620, read-out: LC50): 64.8 µM
IC (TGI) (SW-620; SW-620, read-out: TGI): 13.9 µM
GI50 (LOX IMVI): 4.84 µM
GI50 (LOX IMVI; 5-dose assay): 4.84 µM
CC50 (LOX IMVI; read-out: LC50): 47 µM
IC (TGI) (LOX IMVI; read-out: TGI): 17.5 µM
GI50 (SR): 3.65 µM
CC50 (SR; read-out: LC50): > 100 µM
IC (TGI) (SR; read-out: TGI): 25.1 µM
GI50 (K-562; Homo sapiens, K562): 3.37 µM
CC50 (K-562; Homo sapiens, K562, read-out: LC50): > 100 µM
TGI (K-562; K-562): 2.88E−5
Percent Growth (K-562; K-562, Log10 Concentration −4.0): −16%
Percent Growth (K-562; K-562, Log10 Concentration −5.0): 14%
Percent Growth (K-562; K-562, Log10 Concentration −6.0): 90%
Percent Growth (K-562; K-562, Log10 Concentration −7.0): 99%
Percent Growth (K-562; K-562, Log10 Concentration −8.0): 100%
GI50 (COLO 205; COLO 205): 8.89 µM
CC50 (COLO 205; COLO 205, read-out: LC50): 71.6 µM
IC (TGI) (COLO 205; COLO 205, read-out: TGI): 25.9 µM
GI50 (MDA-MB-468; MDA-MB-468): 3.26 µM
CC50 (MDA-MB-468; MDA-MB-468, read-out: LC50): 59.1 µM
IC (TGI) (MDA-MB-468; MDA-MB-468, read-out: TGI): 14.6 µM
GI50 (U251; U-251): 42.9 µM
CC50 (U251; U-251, read-out: LC50): > 100 µM
IC (TGI) (U251; U-251, read-out: TGI): > 100 µM
GI50 (SF-539; SF-539): 14.4 µM
CC50 (SF-539; SF-539, read-out: LC50): 55.2 µM
IC (TGI) (SF-539; SF-539, read-out: TGI): 28.2 µM
GI50 (NCI-H322M): 37.9 µM
CC50 (NCI-H322M; read-out: LC50): > 100 µM
IC (TGI) (NCI-H322M; read-out: TGI): > 100 µM
GI50 (CAKI-1; CAKI-1): 4.31 µM
CC50 (CAKI-1; CAKI-1, read-out: LC50): 52.7 µM
IC (TGI) (CAKI-1; CAKI-1, read-out: TGI): 17.7 µM
GI50 (OVCAR-3; Homo sapiens, OVCAR-3): 6.2 µM
CC50 (OVCAR-3; Homo sapiens, OVCAR-3, read-out: LC50): 44.1 µM
IC (TGI) (OVCAR-3; Homo sapiens, OVCAR-3, read-out: TGI): 18.7 µM
Percent Growth (OVCAR-3; OVCAR-3, Log10 Concentration −4.0): −98%
Percent Growth (OVCAR-3; OVCAR-3, Log10 Concentration −5.0): 37%
Percent Growth (OVCAR-3; OVCAR-3, Log10 Concentration −6.0): 101%
Percent Growth (OVCAR-3; OVCAR-3, Log10 Concentration −7.0): 109%
Percent Growth (OVCAR-3; OVCAR-3, Log10 Concentration −8.0): 109%

Source: US9469650B2, “Melampomagnolide B derivatives” (BOARD OF TRUSTEES OF THE UNIVERSITY OF ARKANSAS, priority 2013, dated 2016)
